PMC9414910, “Optimized ^68Ga-Labeled Urea-Based PSMA-Targeted PET Tracers for Prostate Cancer” (Pharmaceuticals, 2022)

How the values were obtained:
22Rv1 tumors = test: Micro-PET imaging in 22Rv1 tumor-bearing mice; assay type: in vivo; settings: 60 min p.i.; for SUVmax of tumor: 22Rv1 tumor, 7.4 MBq
Experimental: (§1) The animal studies were approved by the institutional animal care and use committee of the Chinese PLA General Hospital. Healthy male ICR mice were injected with either a novel radiotracer (37 MBq in 150 μL) or saline (150 μL) for the radiotoxicity evaluation. […] Biodistribution and micro-PET studies were performed on 22Rv1 and PC-3 xenograft models, and 2-PMPA was used as the PSMA blocker (all details are shown in the Supplementary Materials).
Table S9. Tumor-to-mu scle (T/M) ratio and tumor- to-kidney (T/K) rati o of radiotracers at 60 min p.i.
The Mice bearing 22Rv1 and PC-3 (n = 3/group) xenograft tumors were […]
Co-injection with 2-PMPA (50 μ g) and each novel tracer (7.4 MBq in 150 μL) was used for blocking. Then the mice were anesthetized with 3% (v/v) isoflurane and underwent Micro-PET scans with continuous 1% (v/v) isoflurane. The images were acquired at 60 min p.i.. In comparison, […]
into another group of mice (n = 3), and Micro-PET schedule was performed as […]
Imaging was performed on a Super Nova PET/CT scanner using a 100-mm-transaxial field of view for PET and 110-mm for CT.
Three-dimensional ordered-subsets expectation maximization reconstruction

22Rv1 cells (mild PSMA+) = test: Cell uptake / binding in 22Rv1 cells; assay type: cell-based, human; settings: 60 min incubation, 37 °C
From the text: Cell lines were kindly provided by the stem cell bank of the Chinese Academy of Sciences. The human prostate cancer epithelial cell lines 22Rv1 (mild PSMA+) and PC-3 (with no PSMA receptor) were used to evaluate the specific cell-binding affinity of the radiotracers, and the results were expressed as percentages of injected activity, IA%/10^6.
Cell Lines and Culture Condition
Cell lines were kindly provided by the stem cell bank, the Chinese Academy of Sciences. The human prostate cancer cell lines 22Rv1 ( mild PSMA positive) and PC3 (PSMA negative) were cultured in RPMI 1640 medium or F12K medium (CORNING, America), supplemented with 10% Fetal Bovine Serum
(GIBCO, The Netherlands) and 1% penicillin-streptomycin (CORNING, America) in a humidified incubator at 37 °C under 5% CO2. Each cell line was passaged when it was at around 80-90% confluence, and harvested using trypsin-ethylenediaminetetraacetic acid (trypsin-EDTA; 0.25% trypsin, 0.02% EDTA, all from KeyGEN BioTECH).
Cells were seeded separately in 24 well plates (1 x 10^5 cells in 1 mL medium/well) and incubated overnight, the medium was changed 2 h before the experiment. For the binding experiments, cells were incubated with novel […]
min, 30 min and 60 min (6 wells/time point). After incubation, the medium was removed and the cells were washed twice with ice-cold phosphate-buffered saline (0.5 mL). Finally, the cells were lysed by NaOH (0.5 M, 0.5 mL). Coincubation of 2-(phosphonomethyl) pentane-1,5-dioic acid […]
(2-PMPA) solution (2 μg/well) and each radiotracer for 60 min was conducted as the blocking experiment. The radioactivity of cells was measured by a γ-counter. The studies were performed in triplicate and the results were reported as the percentage injected activity (IA%/10^6 cells). […]

[1] = Partition coefficient, octanol–water system; assay type: physicochemical; settings: octanol–water (v/v = 1:1), n = 3
Experimental: The partition coefficient of each novel radiotracer was determined using an octanol–water system (v/v = 1:1). The in vitro stability was determined using two systems (PBS and 5% BSA). The Ki value was measured by the NAALADase assay. The 22Rv1 and PC-3 cell lines were used for the cell-binding study and establishment of the tumor-bearing model (detailed information is shown in the Supplementary Materials).
PBS) and reported as log p ± SD. […]

[2] = Blood pharmacokinetics in male ICR mice; assay type: in vivo; settings: 7.4 MBq i.v., two-compartment model
Experimental: Injection of novel radiotracers or [68Ga]Ga-PSMA-617 or [68Ga]Ga-PSMA-11 […]
mice (5 mice/group), and the blood sample (5 μL) of each mouse was collected by cutting down the tail end at different time points post injection. The radioactivity of blood samples were measured by a γ-counter and the pharmacokinetics data was calculated using the WinNonlin software.
Figure S3. Time-activity curves of the blood samplesafter injection of 7.4 MBq of [68Ga]Ga-PSMA-4PY (A), [68Ga]Ga-PSMA-Q (B),[68Ga]Ga-PSMA-P (C), [68Ga]Ga-PSMA-617 (D), [68Ga]Ga-PSMA-11 (E), [68Ga]Ga-PSMA-Q-1 (F), [68Ga]Ga-PSMA-Q-2 (G) and [68Ga]Ga-PSMA-Q-3 (H).
(1 picture or pasted object on this page, not shown here)

22Rv1 tumor-bearing mice = test: Biodistribution in 22Rv1 tumor-bearing mice; settings: for Uptake Blood, Mean / Uptake Bone, Mean / Uptake Heart, Mean / Uptake Kidney, Mean / Uptake Liver, Mean / Uptake Lung, Mean / Uptake Muscle, Mean / Uptake Spleen, Mean / Uptake Tumor (22Rv1), Mean: 0.74 MBq, n = 3; for Clearance profile in the kidneys: within 60 min p.i.
Experimental: as §1
BALB/c nude mice (male, 4-6 weeks) were inoculated subcutaneously with […]
100 mm3, the mice underwent biodistribution study and Micro-PET imaging.
The 22Rv1 tumor-bearing mice were injected with each novel radiotracer or […]
[…] Mice were sacrificed at different time points p.i. (10 min, 30 min, 60 min), tumors and interested organs were harvested, weighed and measured by a γ-counter, the results were expressed as the percentage of injected dose per gram (ID%/g).
Table S1. Uptake values for ex vivo tissues of [ 68Ga]Ga-PSMA-Q (0.74 MBq/mice) in 22Rv1 tumor-bearing mice (10, 30 and 60 min p.i., n = 3/time point).

[3] = biodistribution, 22Rv1 tumor-bearing mice, 60 min p.i.

| Structure (SMILES) | SUVmax of tumor (22Rv1 tumors) | Uptake in 22Rv1 cells (22Rv1 cells (mild PSMA+)) [IA%/10^6] | Log p pH = 7.4 [1] | Elimination half-life [2] [min] | Uptake Blood, Mean (22Rv1 tumor-bearing mice; 10 min p.i.) [ID%/g] | Uptake Bone, Mean (22Rv1 tumor-bearing mice; 10 min p.i.) [ID%/g] | Uptake Heart, Mean (22Rv1 tumor-bearing mice; 10 min p.i.) [ID%/g] | Uptake Kidney, Mean (22Rv1 tumor-bearing mice; 10 min p.i.) [ID%/g] | Uptake Liver, Mean (22Rv1 tumor-bearing mice; 10 min p.i.) [ID%/g] | Uptake Lung, Mean (22Rv1 tumor-bearing mice; 10 min p.i.) [ID%/g] | Uptake Muscle, Mean (22Rv1 tumor-bearing mice; 10 min p.i.) [ID%/g] | Uptake Spleen, Mean (22Rv1 tumor-bearing mice; 10 min p.i.) [ID%/g] | Uptake Tumor (22Rv1), Mean (22Rv1 tumor-bearing mice; 10 min p.i.) [ID%/g] | Uptake Blood, Mean (22Rv1 tumor-bearing mice; 30 min p.i.) [ID%/g] | Uptake Bone, Mean (22Rv1 tumor-bearing mice; 30 min p.i.) [ID%/g] | Uptake Kidney, Mean (22Rv1 tumor-bearing mice; 30 min p.i.) [ID%/g] | Uptake Liver, Mean (22Rv1 tumor-bearing mice; 30 min p.i.) [ID%/g] | Uptake Lung, Mean (22Rv1 tumor-bearing mice; 30 min p.i.) [ID%/g] | Uptake Muscle, Mean (22Rv1 tumor-bearing mice; 30 min p.i.) [ID%/g] | Uptake Spleen, Mean (22Rv1 tumor-bearing mice; 30 min p.i.) [ID%/g] | other results |
| --- | --- | --- | --- | --- | --- | --- | --- | --- | --- | --- | --- | --- | --- | --- | --- | --- | --- | --- | --- | --- | --- |
| O=C([O-])CN1CCN(CC(=O)[O-])CCN(CC(=O)NCC2CCC(C(=O)NC(Cc3ccc4ccccc4c3)C(=O)NCCCCC(NC(=O)NC(CCC(=O)O)C(=O)O)C(=O)O)CC2)CCN(CC(=O)O)CC1.[68Ga+3] (stereo not shown) [[^68Ga]Ga-PSMA-617, reference compound] | 0.85 ± 0.14 | 4.01 ± 0.42 | −2.54 ± 0.13 | 28.46 ± 1.64 | 2.21 | 1.17 | 2.11 | 16.30 | 1.89 | 1.40 | 0.87 | 2.11 | 2.10 | 0.58 | 0.38 | 25.77 | 1.13 | 0.95 | 0.31 | 1.31 | Tumor-to-muscle ratio (micro-PET) (22Rv1 tumors; 22Rv1 tumor-bearing mice): 20.43 ± 1.06; Uptake Heart, Mean (22Rv1 tumor-bearing mice; 30 min p.i.): 1.20 ID%/g; Uptake Tumor (22Rv1), Mean (22Rv1 tumor-bearing mice; 30 min p.i.): 3.36 ID%/g; Uptake Blood, Mean (22Rv1 tumor-bearing mice; 60 min p.i.): 0.33 ID%/g; Uptake Bone, Mean (22Rv1 tumor-bearing mice; 60 min p.i.): 0.29 ID%/g; Uptake Heart, Mean (22Rv1 tumor-bearing mice; 60 min p.i.): 0.10 ID%/g; Uptake Kidney, Mean (22Rv1 tumor-bearing mice; 60 min p.i.): 29.78 ID%/g; Uptake Liver, Mean (22Rv1 tumor-bearing mice; 60 min p.i.): 0.51 ID%/g; Uptake Lung, Mean (22Rv1 tumor-bearing mice; 60 min p.i.): 0.33 ID%/g; Uptake Muscle, Mean (22Rv1 tumor-bearing mice; 60 min p.i.): 0.15 ID%/g; Uptake Spleen, Mean (22Rv1 tumor-bearing mice; 60 min p.i.): 0.95 ID%/g; Uptake Tumor (22Rv1), Mean (22Rv1 tumor-bearing mice; 60 min p.i.): 4.27 ± 0.10 ID%/g; Uptake Tumor (22Rv1), Mean (22Rv1 tumor-bearing mice; 60 min p.i., listed as [68Ga]Ga-PSMA-617): 4.27 ID%/g; Tumor-to-kidney (T/K) ratio (22Rv1 tumor-bearing mice; [3]): 0.14 ± 0.01; Tumor-to-muscle (T/M) ratio (22Rv1 tumor-bearing mice; [3]): 28.43 ± 0.84; Clearance profile in the kidneys (22Rv1 tumor-bearing mice): continuously accumulated in the kidneys |
| O=C([O-])CN1CCN(CC(=O)[O-])CCN(CC(=O)NCCCCC(=O)NC(Cc2cnc3ccccc3c2)C(=O)NCCCCC(NC(=O)NC(CCC(=O)O)C(=O)O)C(=O)O)CCN(CC(=O)O)CC1.[68Ga+3] (stereo not shown) [[^68Ga]Ga-PSMA-Q-1] | 0.86 ± 0.09 | 3.38 ± 0.50 | −3.09 ± 0.19 | 21.17 ± 2.01 | 2.88 | 0.72 | 2.21 | 27.12 | 2.38 | 1.19 | 0.81 | 2.26 | 1.67 | 1.31 | 0.21 | 18.86 | 1.23 | 0.68 | 0.18 | 1.79 | Uptake Tumor (22Rv1), Mean (22Rv1 tumor-bearing mice; 30 min p.i.): 2.07 ID%/g; Uptake Blood, Mean (22Rv1 tumor-bearing mice; 60 min p.i.): 0.37 ID%/g; Uptake Bone, Mean (22Rv1 tumor-bearing mice; 60 min p.i.): 0.15 ID%/g; Uptake Heart, Mean (22Rv1 tumor-bearing mice; 60 min p.i.): 0.54 ID%/g; Uptake Kidney, Mean (22Rv1 tumor-bearing mice; 60 min p.i.): 5.70 ID%/g; Uptake Liver, Mean (22Rv1 tumor-bearing mice; 60 min p.i.): 0.45 ID%/g; Uptake Lung, Mean (22Rv1 tumor-bearing mice; 60 min p.i.): 0.26 ID%/g; Uptake Muscle, Mean (22Rv1 tumor-bearing mice; 60 min p.i.): 0.09 ID%/g; Uptake Spleen, Mean (22Rv1 tumor-bearing mice; 60 min p.i.): 0.45 ID%/g; Uptake Tumor (22Rv1), Mean (22Rv1 tumor-bearing mice; 60 min p.i.): 2.38 ± 0.31 ID%/g; Uptake Tumor (22Rv1), Mean (22Rv1 tumor-bearing mice; 60 min p.i., listed as [68Ga]Ga-PSMA-Q-1): 2.38 ID%/g; Clearance profile in the kidneys (22Rv1 tumor-bearing mice): washed out rapidly from the kidneys |
| O=C([O-])CN1CCN(CC(=O)[O-])CCN(CC(=O)NCc2ccc(C(=O)NC(Cc3cnc4ccccc4c3)C(=O)NCCCCC(NC(=O)NC(CCC(=O)O)C(=O)O)C(=O)O)cc2)CCN(CC(=O)O)CC1.[68Ga+3] (stereo not shown) [[^68Ga]Ga-PSMA-Q-3] | 0.88 ± 0.18 | 3.31 ± 0.49 | −2.99 ± 0.33 | 25.72 ± 1.87 | 1.68 | 0.67 | 1.87 | 21.45 | 1.53 | 0.83 | 0.72 | 1.12 | 1.88 | 0.72 | 0.33 | 13.88 | 1.18 | 0.53 | 0.40 | 0.94 | Uptake Heart, Mean (22Rv1 tumor-bearing mice; 30 min p.i.): 1.29 ID%/g; Uptake Tumor (22Rv1), Mean (22Rv1 tumor-bearing mice; 30 min p.i.): 2.77 ID%/g; Uptake Blood, Mean (22Rv1 tumor-bearing mice; 60 min p.i.): 0.34 ID%/g; Uptake Bone, Mean (22Rv1 tumor-bearing mice; 60 min p.i.): 0.23 ID%/g; Uptake Heart, Mean (22Rv1 tumor-bearing mice; 60 min p.i.): 1.11 ID%/g; Uptake Kidney, Mean (22Rv1 tumor-bearing mice; 60 min p.i.): 2.65 ID%/g; Uptake Lung, Mean (22Rv1 tumor-bearing mice; 60 min p.i.): 0.43 ID%/g; Uptake Muscle, Mean (22Rv1 tumor-bearing mice; 60 min p.i.): 0.19 ID%/g; Uptake Spleen, Mean (22Rv1 tumor-bearing mice; 60 min p.i.): 0.59 ID%/g; Uptake Tumor (22Rv1), Mean (22Rv1 tumor-bearing mice; 60 min p.i.): 3.31 ± 0.29 ID%/g; Uptake Tumor (22Rv1), Mean (22Rv1 tumor-bearing mice; 60 min p.i., listed as [68Ga]Ga-PSMA-Q-3): 3.31 ID%/g; Clearance profile in the kidneys (22Rv1 tumor-bearing mice): washed out rapidly from the kidneys |
